Data: ChEMBL document CHEMBL1201861, “Genomics of Drug Sensitity in Cancer screening data, Wellcome Trust Sanger Institute”

What was measured:
Assay in all cases: cells
PA-1 = format: functional, cell-based, Homo sapiens; conditions: Homo sapiens, PA-1;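 further: IC50 for suppression of PA-1 cell proliferation, determined with a cell viability read-out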
Description: SANGER: Inhibition of human PA-1 cell growth in a cell viability assay.

LoVo = format: functional, cell-based; conditions: Homo sapiens;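 further: growth inhibition of human LoVo cells, read out with a cell viability assay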
Description: SANGER: Inhibition of human LoVo cell growth in a cell viability assay.

NCI-H526 = format: functional, cell-based; conditions: Homo sapiens;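 further: growth inhibition of the human NCI-H526 cell line, measured by a cell viability assay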
Description: SANGER: Inhibition of human NCI-H526 cell growth in a cell viability assay.

CHP-212 = format: functional, cell-based, Homo sapiens; conditions: Homo sapiens, CHP-212
Description: SANGER: Inhibition of human CHP-212 cell growth in a cell viability assay.

IST-MEL1 = format: functional, cell-based, Homo sapiens; conditions: Homo sapiens, IST-MEL1;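 further: growth inhibition of the cell line, read out with a cell viability assay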
Description: SANGER: Inhibition of human IST-MEL1 cell growth in a cell viability assay.

SCC-15 = format: functional, cell-based, Homo sapiens; conditions: Homo sapiens, SCC-15;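 further: growth inhibition of SCC-15 cells, read out with a cell viability assay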
Description: SANGER: Inhibition of human SCC-15 cell growth in a cell viability assay.

MKN-1 = format: functional, cell-based, Homo sapiens; conditions: Homo sapiens, MKN-1;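 further: growth inhibition of human MKN1 cells, read out by a cell viability measurement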
Description: SANGER: Inhibition of human MKN1 cell growth in a cell viability assay.

NCI-H446 = format: functional, cell-based; conditions: Homo sapiens;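 further: growth inhibition of NCI-H446 cells determined by a cell viability assay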
Description: SANGER: Inhibition of human NCI-H446 cell growth in a cell viability assay.

CaR-1 = format: functional, cell-based, Homo sapiens; conditions: Homo sapiens, CaR-1;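 further: growth inhibition of human CaR-1 cancer cells, read out with a cell viability assay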
Description: SANGER: Inhibition of human CaR-1 cell growth in a cell viability assay.

SW1088 = format: functional, cell-based, Homo sapiens; conditions: Homo sapiens, SW1088;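 further: growth inhibition of human SW1088 cells, read out by a cell viability assay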
Description: SANGER: Inhibition of human SW1088 cell growth in a cell viability assay.

MFH-ino = format: functional, cell-based; conditions: Homo sapiens;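 further: growth inhibition of human MFH-ino cells, read out by a cell viability assay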
Description: SANGER: Inhibition of human MFH-ino cell growth in a cell viability assay.

PFSK-1 = format: functional, cell-based, Homo sapiens; conditions: Homo sapiens, PFSK-1;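 further: cell viability assay measuring how strongly compounds suppress growth of human PFSK-1 cells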
Description: SANGER: Inhibition of human PFSK-1 cell growth in a cell viability assay.

LS-1034 = format: functional, cell-based, Homo sapiens; conditions: Homo sapiens, LS-1034
Description: SANGER: Inhibition of human LS-1034 cell growth in a cell viability assay.

L-428 = format: functional, cell-based; conditions: Homo sapiens
Description: SANGER: Inhibition of human L-428 cell growth in a cell viability assay.

SiHa = format: functional, cell-based, Homo sapiens; conditions: Homo sapiens, SiHa;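 further: Viability-based readout of growth inhibition in SiHa cells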
Description: SANGER: Inhibition of human SiHa cell growth in a cell viability assay.

MN-60 = format: functional, cell-based; conditions: Homo sapiens;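 further: growth inhibition of the MN-60 cell line, determined with a cell viability assay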
Description: SANGER: Inhibition of human MN-60 cell growth in a cell viability assay.

GCIY = format: functional, cell-based, Homo sapiens; conditions: Homo sapiens, GCIY;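 further: growth inhibition of the human GCIY cell line, read out by a cell viability assay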
Description: SANGER: Inhibition of human GCIY cell growth in a cell viability assay.

CAL-120 = format: functional, cell-based, Homo sapiens; conditions: Homo sapiens, CAL-120;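 further: cell growth inhibition, read out as cell viability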
Description: SANGER: Inhibition of human CAL-120 cell growth in a cell viability assay.

BT-474 = format: functional, cell-based, Homo sapiens; conditions: Homo sapiens, BT-474
Description: SANGER: Inhibition of human BT-474 cell growth in a cell viability assay.

RT-112 = format: functional, cell-based, Homo sapiens; conditions: Homo sapiens, RT-112
BB49-HNC = format: functional, cell-based, Homo sapiens; conditions: Homo sapiens, BB49-HNC;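 further: cell viability assay read-out, reported as inhibition of BB49-HNC cell growth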
Description: SANGER: Inhibition of human BB49-HNC cell growth in a cell viability assay.

SK-N-DZ = format: functional, cell-based, Homo sapiens; conditions: Homo sapiens, SK-N-DZ;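 further: growth inhibition of the cancer cell line, read out through a viability assay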
Description: SANGER: Inhibition of human SK-N-DZ cell growth in a cell viability assay.

LCLC-97TM1 = format: functional, cell-based, Homo sapiens; conditions: Homo sapiens, LCLC-97TM1;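 further: cell viability assay measuring growth inhibition of human LCLC-97TM1 cells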
Description: SANGER: Inhibition of human LCLC-97TM1 cell growth in a cell viability assay.

RERF-LC-MS = format: functional, cell-based, Homo sapiens; conditions: Homo sapiens, RERF-LC-MS;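 further: growth inhibition of human RERF-LC-MS cells, read out by a cell viability assay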
Description: SANGER: Inhibition of human RERF-LC-MS cell growth in a cell viability assay.

MKN-7 = format: functional, cell-based, Homo sapiens; conditions: Homo sapiens, MKN-7;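 further: growth inhibition of MKN-7 cells, read out with a cell viability assay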
Description: SANGER: Inhibition of human MKN7 cell growth in a cell viability assay.

KYSE-70 cell line = format: functional, cell-based, Homo sapiens; conditions: Homo sapiens, KYSE-70;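 further: cell viability assay read-out, with IC50 expressing suppression of KYSE-70 cell growth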
Description: SANGER: Inhibition of human KYSE-70 cell growth in a cell viability assay.

LB2518-MEL = format: functional, cell-based, Homo sapiens; conditions: Homo sapiens, LB2518-MEL;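 further: growth inhibition of human LB2518-MEL cells, measured with a cell viability assay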
Description: SANGER: Inhibition of human LB2518-MEL cell growth in a cell viability assay.

LU-134-A = format: functional, cell-based; conditions: Homo sapiens
Description: SANGER: Inhibition of human LU-134-A cell growth in a cell viability assay.

TCC-SUP = format: functional, cell-based, Homo sapiens; conditions: Homo sapiens, TCC-SUP;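 further: growth inhibition of TCC-SUP cells, read out with a cell viability assay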
Description: SANGER: Inhibition of human TCCSUP cell growth in a cell viability assay.

U-266 = format: functional, cell-based; conditions: Homo sapiens
Description: SANGER: Inhibition of human U-266 cell growth in a cell viability assay.

NCI-H1838 = format: functional, cell-based, Homo sapiens; conditions: Homo sapiens, NCI-H1838;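 further: growth inhibition of NCI-H1838 cells, determined with a cell viability readout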
Description: SANGER: Inhibition of human NCI-H1838 cell growth in a cell viability assay.

J82 = format: functional, cell-based; conditions: Homo sapiens;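 further: growth inhibition of J82 cells, read out with a cell viability assay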
Description: SANGER: Inhibition of human J82 cell growth in a cell viability assay.

BB65-RCC = format: functional, cell-based, Homo sapiens; conditions: Homo sapiens, BB65-RCC;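 further: growth inhibition of the cell line, measured with a cell viability assay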
Description: SANGER: Inhibition of human BB65-RCC cell growth in a cell viability assay.

DB = format: functional, cell-based; conditions: Homo sapiens
Description: SANGER: Inhibition of human DB cell growth in a cell viability assay.

BCPAP = format: functional, cell-based, Homo sapiens; conditions: Homo sapiens, BCPAP;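 further: growth inhibition of BCPAP cells, read out in a cell viability assay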
Description: SANGER: Inhibition of human BCPAP cell growth in a cell viability assay.

A498 = format: functional, cell-based, Homo sapiens; conditions: Homo sapiens, A498;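 further: growth inhibition of human A498 cells, read out with a cell viability assay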
Description: SANGER: Inhibition of human A498 cell growth in a cell viability assay.

MDA-MB-175-VII = format: functional, cell-based, Homo sapiens; conditions: Homo sapiens, MDA-MB-175-VII
U-118-MG = format: functional, cell-based, Homo sapiens; conditions: Homo sapiens, U-118-MG
Description: SANGER: Inhibition of human U-118-MG cell growth in a cell viability assay.

NB10 = format: functional, cell-based, Homo sapiens; conditions: Homo sapiens, NB10;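 further: growth inhibition of NB10 cells, read out by a cell viability assay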
Description: SANGER: Inhibition of human NB10 cell growth in a cell viability assay.

A-427 = format: functional, cell-based, Homo sapiens; conditions: Homo sapiens, A-427;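 further: growth inhibition of human A-427 cells, read out by a cell viability assay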
Description: SANGER: Inhibition of human A427 cell growth in a cell viability assay.

AN3-CA = format: functional, cell-based; conditions: Homo sapiens;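 further: growth inhibition of human AN3-CA cells measured by a cell viability assay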
Description: SANGER: Inhibition of human AN3-CA cell growth in a cell viability assay.

SW948 = format: functional, cell-based, Homo sapiens; conditions: Homo sapiens, SW948;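 further: growth inhibition of SW948 cells, read out with a cell viability assay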
Description: SANGER: Inhibition of human SW948 cell growth in a cell viability assay.

Lu-65 = format: functional, cell-based; conditions: Homo sapiens;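 further: growth inhibition of Lu-65 cancer cells, read out by a cell viability assay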
Description: SANGER: Inhibition of human LU-65 cell growth in a cell viability assay.

KINGS-1 = format: functional, cell-based, Homo sapiens; conditions: Homo sapiens, KINGS-1;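 further: cell viability assay measuring suppression of KINGS-1 cell growth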
Description: SANGER: Inhibition of human KINGS-1 cell growth in a cell viability assay.

786-0 = format: functional, cell-based, Homo sapiens; conditions: Homo sapiens
Description: SANGER: Inhibition of human 786-0 cell growth in a cell viability assay.

UO-31 = format: functional, cell-based; conditions: Homo sapiens;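 further: cell viability assay measuring inhibition of cell growth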
Description: SANGER: Inhibition of human U031 cell growth in a cell viability assay.

KYSE-410 = format: functional, cell-based, Homo sapiens; conditions: Homo sapiens, KYSE-410;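 further: growth inhibition of KYSE-410 cells, measured through a cell viability readout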
Description: SANGER: Inhibition of human KYSE-410 cell growth in a cell viability assay.

C3A = format: functional, cell-based, Homo sapiens; conditions: Homo sapiens, C3A;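 further: growth inhibition of C3A human cells, quantified with a cell viability readout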
Description: SANGER: Inhibition of human C3A cell growth in a cell viability assay.

BPH-1 = format: functional, cell-based, Homo sapiens; conditions: Homo sapiens, BPH-1;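 further: cell viability assay measuring growth inhibition of human BPH-1 cells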
Description: SANGER: Inhibition of human BPH-1 cell growth in a cell viability assay.

C32 = format: functional, cell-based, Homo sapiens; conditions: Homo sapiens, C32;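 further: cell viability assay, with IC50 reflecting inhibition of C32 cell growth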
Description: SANGER: Inhibition of human C32 cell growth in a cell viability assay.

MDA-MB-415 = format: functional, cell-based; conditions: Homo sapiens
M14 = format: functional, cell-based, Homo sapiens; conditions: Homo sapiens, M14;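 further: growth inhibition of M14 cells, read out with a cell viability assay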
Description: SANGER: Inhibition of human M14 cell growth in a cell viability assay.

CCOc1nc(NC(=O)Cc2cc(OC)ccc2OC)cc(N)c1C#N
IC50 (PA-1): > 10000 nM
IC50 (LoVo): > 10000 nM
IC50 (NCI-H526): > 10000 nM
IC50 (CHP-212): > 10000 nM
IC50 (IST-MEL1): > 10000 nM
IC50 (SCC-15): > 10000 nM
IC50 (MKN-1): > 10000 nM
IC50 (NCI-H446): > 10000 nM
IC50 (CaR-1): > 10000 nM
IC50 (SW1088): > 10000 nM
IC50 (MFH-ino): > 10000 nM
IC50 (PFSK-1): > 10000 nM
IC50 (LS-1034): > 10000 nM
IC50 (L-428): > 10000 nM
IC50 (SiHa): > 10000 nM
IC50 (MN-60): > 10000 nM
IC50 (GCIY): > 10000 nM
IC50 (CAL-120): > 10000 nM
IC50 (BT-474): > 10000 nM
IC50 (RT-112): > 10000 nM
IC50 (BB49-HNC): > 10000 nM
IC50 (SK-N-DZ): > 10000 nM
IC50 (LCLC-97TM1): > 10000 nM
IC50 (RERF-LC-MS): > 10000 nM
IC50 (MKN-7): > 10000 nM
IC50 (KYSE-70 cell line): > 10000 nM
IC50 (LB2518-MEL): > 10000 nM
IC50 (LU-134-A): > 10000 nM
IC50 (TCC-SUP): > 10000 nM
IC50 (U-266): > 10000 nM
IC50 (NCI-H1838): > 10000 nM
IC50 (J82): > 10000 nM
IC50 (BB65-RCC): > 10000 nM
IC50 (DB): > 10000 nM
IC50 (BCPAP): > 10000 nM
IC50 (A498): > 10000 nM
IC50 (MDA-MB-175-VII): > 10000 nM
IC50 (U-118-MG): > 10000 nM
IC50 (NB10): > 10000 nM
IC50 (A-427): > 10000 nM
IC50 (AN3-CA): > 10000 nM
IC50 (SW948): > 10000 nM
IC50 (Lu-65): > 10000 nM
IC50 (KINGS-1): > 10000 nM
IC50 (786-0): > 10000 nM
IC50 (UO-31): > 10000 nM
IC50 (KYSE-410): > 10000 nM
IC50 (C3A): > 10000 nM
IC50 (BPH-1): > 10000 nM
IC50 (C32): > 10000 nM
IC50 (MDA-MB-415): > 10000 nM
IC50 (M14): > 10000 nM

CN(C)C/C=C/C(=O)Nc1cc2c(Nc3ccc(F)c(Cl)c3)ncnc2cc1O[C@H]1CCOC1 [AFATINIB]
IC50 (PA-1): > 500 nM
IC50 (LoVo): > 500 nM
IC50 (NCI-H526): 78.2 nM
IC50 (CHP-212): > 500 nM
IC50 (IST-MEL1): > 500 nM
IC50 (SCC-15): > 500 nM
IC50 (MKN-1): > 500 nM
IC50 (NCI-H446): > 500 nM
IC50 (CaR-1): > 500 nM
IC50 (SW1088): > 500 nM
IC50 (MFH-ino): > 500 nM
IC50 (PFSK-1): > 500 nM
IC50 (LS-1034): > 500 nM
IC50 (L-428): > 500 nM
IC50 (SiHa): > 500 nM
IC50 (MN-60): > 500 nM
IC50 (GCIY): > 500 nM
IC50 (CAL-120): > 500 nM
IC50 (BT-474): 49.9 nM
IC50 (RT-112): > 500 nM
IC50 (BB49-HNC): > 500 nM
IC50 (SK-N-DZ): > 500 nM
IC50 (LCLC-97TM1): > 500 nM
IC50 (RERF-LC-MS): > 500 nM
IC50 (MKN-7): > 500 nM
IC50 (KYSE-70 cell line): > 500 nM
IC50 (LB2518-MEL): > 500 nM
IC50 (LU-134-A): > 500 nM
IC50 (TCC-SUP): > 500 nM
IC50 (U-266): > 500 nM
IC50 (NCI-H1838): > 500 nM
IC50 (J82): > 500 nM
IC50 (BB65-RCC): 346 nM
IC50 (DB): > 500 nM
IC50 (BCPAP): > 500 nM
IC50 (A498): 407 nM
IC50 (MDA-MB-175-VII): 34.2 nM
IC50 (U-118-MG): > 500 nM
IC50 (NB10): > 500 nM
IC50 (A-427): > 500 nM
IC50 (AN3-CA): > 500 nM
IC50 (SW948): > 500 nM
IC50 (Lu-65): 126 nM
IC50 (KINGS-1): > 500 nM
IC50 (786-0): > 500 nM
IC50 (UO-31): > 500 nM
IC50 (KYSE-410): > 500 nM
IC50 (C3A): > 500 nM
IC50 (BPH-1): 59.9 nM
IC50 (C32): > 500 nM
IC50 (MDA-MB-415): > 500 nM
IC50 (M14): > 500 nM
